Article PMC9525908, “α-Crystallin chaperone mimetic drugs inhibit lens γ-crystallin aggregation: Potential role for cataract prevention” (The Journal of Biological Chemistry, 2022)
Where a chain is given by its changes, count along the chain named. Entries after “also recorded” stand apart in the source; their conditions may differ.

Assays:
Format in all cases: biochemical
Bovine γ-crystallins = test: Thermal aggregation (72 °C) turbidity assay, bovine γ-crystallins (pool 4); conditions: for Thermal denaturation inhibitory activity in subscreen: 150 μM; for Thermal denaturation inhibitory activity in subscreen / % Suppression: 72 °C 20 min; for % Suppression: 75 μM protein, 125 μM or less inhibitor (1.7:1)
Procedure: Candidate compounds were rescreened using thermal denaturation upon heating at 72 °C for 20 min according to Chen et al. ([36]) in order to select for compounds with chaperone rather than antioxidant activity since a large number of the latter already exist in the cataract field ([37]).
(§1) For a review, see the study by Roskamp et al. ([38]). […] For the mechanistic studies below these two compounds together with either drug M, chosen mostly as negative control, or the entire set of six compounds were used for comparison purpose, whereby the words “drug” or “compound” are used interchangeably in the studies later.
All assays were carried out manually in CORNING #9017 Costar Assay 96-well plates. Wells were filled with 90 μl calf γ-crystallin-rich protein solution (pool 4 at 2 mg/ml) followed by 0.5 to 5.0 μl of drug (all 10 mM stock solution in DMSO) as supplied by the manufacturer and 10 μl H2O2 (450 mM stock solution in water) and sealed with sticky Applied Biosystems MicroAmp Clear Adhesive films (Life Technologies). Control wells received DMSO only. Plates were shaken for 2 min and incubated from 24 to 72 h in a culture room at 37 °C. […] A second reading was performed following a heat shock of 20 min at 72 °C as described by Chen et al. ([36]) in order to capture drugs with heat-resistant chaperone activity. In order to quantitate the impact of the drugs on aggregation, a fitness plot was created (Fig. 1 C) that allowed us to identify wells with enhanced/worsening versus suppressed crystallin aggregation. In addition, aggregation in each well was also visually assessed by two independent “blinded” readers for the ability to read fine print through each well by placing the plates over small font text (Fig. 1D). Both machine and visual readouts were reconciled in order to increase robustness.
(§2) Final DMSO concentration was 5% including in control samples. Microtiter plates were first incubated for 10 min at 72 °C and reincubated for 10 more min. Absorbance was measured at both 10 and 20 min total incubation time.

HγD = target: T1, HγD (Homo sapiens, UniProt P07320); test: Thermal aggregation (72 °C) turbidity assay, recombinant HγD
T1 construct: made in house; host or cells: E. coli BL21(DE3) pLysS, pET3d vector
T1 sequence (P07320 1-174): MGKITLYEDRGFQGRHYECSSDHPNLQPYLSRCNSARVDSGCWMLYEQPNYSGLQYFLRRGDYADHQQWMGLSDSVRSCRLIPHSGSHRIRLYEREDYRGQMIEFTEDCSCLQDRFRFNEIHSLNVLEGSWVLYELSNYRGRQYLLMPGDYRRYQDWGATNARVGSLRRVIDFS
Procedure: For refinement of the aforementioned screen, these compounds were tested at concentrations varying from 50 to 500 μM and 1.5 mg/ml concentration of recombinant HγD, human gamma S (HγS), its deamidation mutants γS_N14, γS_N76, γS_N143 and its triple mutant γSTM (Fig. 1F). In addition, other drugs and compounds that tested positive in the initial screen were also included, such as escin (E), hematein (I), citric acid (CA), docusate sodium (DS), and sennoside A (S) (Fig. S1B). […] For a review, see the study by Roskamp et al. ([38]). […] Thus, drug C and drug G emerged as the strongest antidenaturation/aggregation and potential anticataract drugs. For the mechanistic studies below these two compounds together with either drug M, chosen mostly as negative control, or the entire set of six compounds were used for comparison purpose, whereby the words “drug” or “compound” are used interchangeably in the studies later.
(§3) For end-point assays, HγD and MγS (1 mg/ml, 100 μl) in 50 mM K3PO4 buffer (pH 7.2) in set of triplicates in transparent flat bottom 96-well plates were heated at 72 °C for 20 min in the presence and absence of selected drugs at varying concentrations. Absorbance was measured at 600 nm with a SpectraMax iD5 (Molecular Devices).
HγD protein (2.5 mg/ml buffer A) was incubated at 72 °C for 20 min without or with 100 or 400 μM drug G or C in buffer A. Final DMSO concentration was 5% in all samples. […] Therefore, samples with and without 400 μM drug G were chosen for identification of drug G-induced miscleavage sites upon digestion with 25:1 protein:trypsin ratio (sequencing grade modified trypsin; Promega) in buffer A. After 4 h, samples were frozen at −80 °C until processed for determination of miscleavage sites using proteomics analysis. LC–MS/MS analysis was performed on an Orbitrap Eclipse mass spectrometer (Thermo Fisher Scientific) coupled with a Waters nanoAcquity UPLC system (Waters) in total 90 min run using a linear gradient range from 0 to 42% solvent B (0.1% formic acid in acetonitrile) versus solvent A (0.1% formic acid in water) at a flow rate of 300 nl/min. MS1 full mass spectra were acquired in the Orbitrap mass analyzer at the resolution of 120 K. MS/MS tandem mass spectra were generated in the ion trap mass analyzer by collision-induced dissociation of peptide ions at a normalized collision energy of 35%. The resulting MS/MS spectra were searched against human gamma D protein database using Mass Matrix software (MassMatrix, Inc) with the mass errors of 10 ppm and 0.8 Da for MS1 and MS/MS scans, respectively. The oxidation of methionine was set for variable modifications, and three miscleavages were allowed for the search.
as §2

bovine gamma crystallins = test: Screen: H2O2 and heat mediated aggregation of bovine gamma crystallins, turbidimetry at 600 nm; conditions: 500 μM compound, H2O2 with or without added thermal stress
Procedure: For the initial screen, a microtiter plate assay was developed in which bovine crystallins (2 mg/ml of 50 mM K3PO4 buffer, pH 7.2 [buffer A]) were exposed to H2O2 at varying concentrations (1–50 mM) for 12 to 36 h, upon which turbidity developed (at 50 mM H2O2 concentration) in both β- and γ-crystallins (Fig. 1, A and B). […] This was determined by turbidimetry at 600 nm (Fig. 1C) and confirmed using visual assessment of solution transparency over a fine text as well as the presence of cloudy aggregates visible by dark field microscopy (Fig. 1D). The drug:protein stoichiometric ratio was about 5:1. The wavelength of 600 nm was chosen to minimize interference by colored compounds, many of which absorb below 500 nm (Fig. 1E).
Wells were filled with 90 μl calf γ-crystallin-rich protein solution (pool 4 at 2 mg/ml) followed by 0.5 to 5.0 μl of drug (all 10 mM stock solution in DMSO) as supplied by the manufacturer and 10 μl H2O2 (450 mM stock solution in water) and sealed with sticky Applied Biosystems MicroAmp Clear Adhesive films (Life Technologies). Control wells received DMSO only. […] In order to quantitate the impact of the drugs on aggregation, a fitness plot was created (Fig. 1 C) that allowed us to identify wells with enhanced/worsening versus suppressed crystallin aggregation. In addition, aggregation in each well was also visually assessed by two independent “blinded” readers for the ability to read fine print through each well by placing the plates over small font text (Fig. 1D). Both machine and visual readouts were reconciled in order to increase robustness.

HγS = target: T2, HγS (Homo sapiens, UniProt P22914); test: Thermal aggregation (72 °C, 20 min) turbidity assay, HγS; conditions: HγS; 75 μM protein, 125 μM or less inhibitor (1.7:1), 72 °C 20 min
T2 sequence (P22914 1-178): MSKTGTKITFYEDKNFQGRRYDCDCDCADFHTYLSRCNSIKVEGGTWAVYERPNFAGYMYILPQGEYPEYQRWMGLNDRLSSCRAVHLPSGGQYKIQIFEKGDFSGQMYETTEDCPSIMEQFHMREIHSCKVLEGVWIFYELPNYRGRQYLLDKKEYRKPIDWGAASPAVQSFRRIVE
From the text: as §1

HγS_N143D = target: T3, HγS_N143D (Homo sapiens, UniProt P22914, N144D); test: Thermal aggregation (72 °C, 20 min) turbidity assay, HγS_N143D; conditions: HγS_N143D; 75 μM protein, 125 μM or less inhibitor (1.7:1), 72 °C 20 min
T3 sequence (P22914 1-178 N144D): T2 sequence (P22914 1-178) with N144D
From the text: as §1

WT-MγS = target: T4, WT-MγS (Mus musculus, UniProt O35486); test: End-point heat-mediated turbidity assay, WT-MγS; conditions: 400 μM drug, 72 °C, protein above 0.5 mg/ml
T4 construct: made in house; host or cells: E. coli BL21(DE3) pLysS, pET17b vector
T4 sequence (O35486 1-178): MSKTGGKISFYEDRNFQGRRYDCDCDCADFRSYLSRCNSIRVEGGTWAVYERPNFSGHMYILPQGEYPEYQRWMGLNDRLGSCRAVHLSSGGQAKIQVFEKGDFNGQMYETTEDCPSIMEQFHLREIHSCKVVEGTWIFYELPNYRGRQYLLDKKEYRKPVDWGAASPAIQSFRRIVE
Procedure: as §3, with “Devices). […]” for “Devices).”
as §2

Compound | Outcome in the library screen (effect on aggregation/turbidity at 600 nm) (bovine gamma crystallins) | other results
pool 1: purified high–molecular weight bovine α-crystallins, used as positive control |  | Inhibition of pool 4 protein aggregation by positive control (Bovine γ-crystallins; thermal aggregation): potently inhibit; Inhibition of HγD aggregation by positive control (HγD; thermal aggregation): potently inhibit
O=C(O)c1cc(O)c2c(c1)[C@H]([C@H]1c3cc(C(=O)O)cc(O)c3C(=O)c3c(O[C@@H]4O[C@H](CO)[C@@H](O)[C@H](O)[C@H]4O)cccc31)c1cccc(O[C@@H]3O[C@H](CO)[C@@H](O)[C@H](O)[C@H]3O)c1C2=O [drug S, sennoside A] | positive | 
O=c1c(O)c(-c2ccc(O)c(O)c2)oc2cc(O)cc(O)c12 [quercetin] | worsened aggregation | 
hemin | positive | 
CC1=C(CCC(=O)O)c2cc3[nH]c(cc4nc(cc5[nH]c(cc1n2)c(C)c5C(C)O)C(C)=C4C(C)O)c(C)c3CCC(=O)O (centres unmarked) [drug H, hematoporphyrin] | positive | Thermal denaturation inhibitory activity in subscreen (Bovine γ-crystallins): thermal denaturation inhibitory activity
CC(C)=CCC[C@@H](C)[C@H]1CC[C@@]2(C)C3=C(CC[C@]12C)[C@@]1(C)CC[C@H](O)C(C)(C)[C@@H]1CC3 [lanosterol] | no impact | 
O=C(O[C@@H]1Cc2c(O)cc(O)cc2O[C@@H]1c1cc(O)c(O)c(O)c1)c1cc(O)c(O)c(O)c1 [epigallocatechin gallate] | improved aggregation | 
CCCCCCCCCCCCCCOS(=O)(=O)[O-].[Na+] [drug T, tetradecyl sulfate sodium] |  | Thermal denaturation inhibitory activity in subscreen (Bovine γ-crystallins): thermal denaturation inhibitory activity; % Suppression (HγS): 40%; % Suppression (HγS_N143D): 42%
escin [drug E] | positive | 
Cc1c(C(=O)O)c(O)cc2c1C(=O)c1c(O)c(C3O[C@H](CO)[C@@H](O)[C@H](O)[C@H]3O)c(O)c(O)c1C2=O (stereo in doubt) [carmine] | no impact | 
O=C(O)CC(O)(CC(=O)O)C(=O)O [CA, citric acid] | positive | 
C=CCCCCCCCCCCCC(O)CC(O)CO (centres unmarked) [drug V, avocadene] |  | Thermal denaturation inhibitory activity in subscreen (Bovine γ-crystallins): thermal denaturation inhibitory activity; % Suppression (Bovine γ-crystallins; Bovine γ-crystallins experiment 1): 36%; % Suppression (Bovine γ-crystallins; Bovine γ-crystallins experiment 2): 53%
O=c1c(O)c(-c2ccc(O)cc2O)oc2cc(O)cc(O)c12 [morin] | no impact | 
CCCCC(CC)COC(=O)CC(C(=O)OCC(CC)CCCC)S(=O)(=O)O (centres unmarked) [drug DS, docusate sodium] | positive | 
O=C1C=C2CC3(O)COc4c(ccc(O)c4O)C3=C2C=C1O (centres unmarked) [drug I, hematein] | positive | 
COc1ccc([C@@H]2CC(=O)c3c(O)cc(O)cc3O2)cc1O [hesperetin] | no impact | 
CCCCCCCCCCCCCCCCC(C(=O)O)C(O)(CC(=O)O)C(=O)O (centres unmarked) [drug A, agaric acid] |  | Effect on BGC aggregation at 2.0 mg/ml at 10 min (Bovine γ-crystallins; 400 μM drug, 72 °C, 10 min): improved BGC aggregation; also recorded: protects; Effect on HγD aggregation at low protein (HγD; 400 μM drug, 72 °C): not; Effect on HγD at 2.0 mg/ml and 20 min (HγD; 400 μM drug, 72 °C, 20 min): suppressed; also recorded: protects; Effect on MγS absorbance (WT-MγS): blocked absorbance; also recorded: protects
